Here are results for six compounds from patent US20100105764A1 (priority 2006, published 2010).

The format of data set [1] is in vivo, mice. Here is the method:
(§1) Ovariectomised, athymic female MF-1 nude mice (nu/nu) (age 6-8 weeks) were obtained from Harlan Olac. Twenty four hours before the inoculation of MCF-7 cells animals were injected s.c. with androstenedione (A4) or estradiol sulfate (E2S). On the day of inoculation MCF-7 cells (50 μl in Matrigel) were injected s.c. into the flanks of mice. After cell inoculation mice were injected with A4 and E2S and received another injection of these steroids 24 h later. Mice then received A4 plus E2S 3 times per week until the end of the study. When tumours had reached approximately 80 mm^3 dosing was initiated with compounds being administered orally (100 μl; vehicle 10% THF: 90% propylene glycol). Tumour measurements and the weight of animals were recorded weekly.
(§2) This study was similar to the previous one with the exception that MCF-7STS or MCF-7AROM cells (1×10^7) were inoculated into different flanks of the same animals. The doses of A4 and E2S were increased to 100 μg for each compound.

For data set [2], the system named is tumours derived from MCF-7STS cells. In words: Study 2: growth of tumours derived from MCF-7STS cells in nude mice. In kind it is in vivo. The following applies: Study 2, A4 plus E2S stimulated; oral administration; letrozole 0.1 mg/kg; FIGS. 9-11. Here is the method: as §1
(§3) MCF-7 cells were routinely cultured in RPMI with 10% FCS. The cDNAs for either the aromatase or STS were cloned into the pCl-Neo vector which contains the neomycin resistant gene and transfected into MCF-7 cells. Stable clones were selected using G418 and cell lines established and evaluated for enzyme expression and activity.
as §2

In data set [3] the test system is tumours derived from MCF-7AROM cells. In words: Study 2: growth of tumours derived from MCF-7AROM cells in nude mice. In kind it is in vivo. The following applies: Study 2, A4 plus E2S stimulated; oral administration; letrozole 0.1 mg/kg; FIGS. 9-11. Here is the method: as §1, §3, §2
Data set [4] is classed as in vivo. The following applies: for toxic effects (animal growth): Study 1, FIG. 7. As for the experimental part:
as §1
For this study MCF-7 cells over-expressing aromatase or STS were mixed and inoculated (5×10^6 cells) in Matrigel into the flanks of nude mice. A similar number of MCF-7WT cells were inoculated into the other flank. For this study growth of tumours was stimulated by s.c. injection of A4 (50 μg) and E2S (50 μg) in 50 μl vehicle.

Data set [5] relates to MCF-7STS+MCF-7AROM tumours. In words: Study 1: MCF-7STS+MCF-7AROM tumour growth in nude mice. In kind it is in vivo. The conditions noted are these: Study 1, A4 plus E2S stimulated; oral; letrozole 0.1 mg/kg, STX213 10 mg/kg p.o. 5/7 per week; FIG. 6. Here is the method:
as §1, §3
(§4) For this study MCF-7 cells over-expressing aromatase or STS were mixed and inoculated (5×10^6 cells) in Matrigel into the flanks of nude mice. A similar number of MCF-7WT cells were inoculated into the other flank. […]

The next data set has as its system MCF-7WT tumours. In words: Study 1: MCF-7WT tumour growth in nude mice. In kind it is in vivo. The conditions noted are these: Study 1, A4 plus E2S stimulated; oral; letrozole 0.1 mg/kg, STX213 10 mg/kg p.o. 5/7 per week; FIG. 6. Here is the method: as §1, §3, §4
The target of data set [6] is T1, E1-STS (Homo sapiens, UniProt P08842).
T1 sequence (P08842 22-583): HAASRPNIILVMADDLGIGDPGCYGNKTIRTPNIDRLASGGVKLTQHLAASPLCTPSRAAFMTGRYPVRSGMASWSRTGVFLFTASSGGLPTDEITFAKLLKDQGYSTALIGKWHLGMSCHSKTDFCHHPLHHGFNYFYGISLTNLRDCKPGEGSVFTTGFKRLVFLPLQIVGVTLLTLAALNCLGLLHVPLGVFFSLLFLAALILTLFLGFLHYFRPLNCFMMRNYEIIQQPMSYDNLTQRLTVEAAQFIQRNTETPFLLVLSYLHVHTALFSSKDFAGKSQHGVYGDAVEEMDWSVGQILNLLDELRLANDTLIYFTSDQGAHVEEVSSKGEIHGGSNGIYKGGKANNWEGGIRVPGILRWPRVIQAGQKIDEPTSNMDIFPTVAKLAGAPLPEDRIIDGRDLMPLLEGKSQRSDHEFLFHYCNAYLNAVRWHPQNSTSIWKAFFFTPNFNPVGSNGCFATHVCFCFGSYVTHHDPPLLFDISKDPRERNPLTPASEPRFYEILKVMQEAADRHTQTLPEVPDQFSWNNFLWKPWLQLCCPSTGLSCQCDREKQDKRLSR
The following applies: cited from earlier work.

Data set [7] is described as follows: Phase I trial: serum steroid levels. In kind it is in vivo. The conditions noted are these: postmenopausal women with breast cancer. From the text:
The assay for the determination of androstenedione, testosterone, E1 and E2 was the gas chromatographic tandem mass spectroscopic method of Wang et al., (2005). Recombinant cell ultra-sensitive bioassay for measurements of estrogens in postmenopausal women J Clin Endocrinol Metab 90: 1407-1413, 2005.
In addition to the aromatase pathway for the synthesis of estrogens in postmenopausal women, the sulfatase route is also important of the formation of steroids with potent estrogenic properties. Steroid sulfatase (STS) is responsible for the hydrolysis of estrone sulfate (E1S) and dehydroepiandrosterone sulfate (DHEAS) to estrone (E1) and DHEA respectively, which can be reduced in the body to estradiol (E2) and androstenediol (Adiol), both of which have potent estrogenic properties (FIGS. 3 & 4; reviewed in Reed et al., Endocrine Reviews, 256:171-202, 2005). […] This provides evidence for an aromatase independent pathway.

In data set [8] the test system is tumours derived from MCF 7STS cells. It is filed as in vivo. The following applies: initial experiments, nude mice, FIG. 5.
In a further data set the target is T2, STS (Homo sapiens, UniProt P08842).
T2 construct: STS activity in peripheral and tumour tissues in postmenopausal women with breast cancer; from tissue; host or cells: peripheral and breast tumour tissues of patients
T2 sequence (P08842 22-583): T1 sequence (P08842 22-583)
In words: Phase I trial: STS activity in peripheral and tumour tissues. In kind it is in vivo. The following applies: postmenopausal women with breast cancer. From the text:
In addition to the aromatase pathway for the synthesis of estrogens in postmenopausal women, the sulfatase route is also important of the formation of steroids with potent estrogenic properties. Steroid sulfatase (STS) is responsible for the hydrolysis of estrone sulfate (E1S) and dehydroepiandrosterone sulfate (DHEAS) to estrone (E1) and DHEA respectively, which can be reduced in the body to estradiol (E2) and androstenediol (Adiol), both of which have potent estrogenic properties (FIGS. 3 & 4; reviewed in Reed et al., Endocrine Reviews, 256:171-202, 2005).

In data set [9] the target is T1, E1-STS. Details: E1-STS activity in intact MCF-7 cells; endogenous in cells; host or cells: MCF-7 cells (intact). The following applies: intact MCF-7 cells, at 0.1 nM; cited from earlier work.
Data set [10] addresses T3, dehydroepiandrosterone sulphatase (DHEA-STS) (Homo sapiens, UniProt P08842).
T3 sequence (P08842 22-583): T1 sequence (P08842 22-583)
The following applies: cited from earlier work.

For data set [11] the following is noted: rats; cited from earlier work.

Read-outs that look alike come from different tables or passages of the source.

Take `N#Cc1ccc(C(c2ccc(C#N)cc2)n2cncn2)cc1` [letrozole, reference compound]: the “tolerability, effects on animal weight” value in data set [1] (mouse, in vivo) is reported as “well tolerated with no effects on animal weight”. Also, the “growth of tumours derived from MCF-7STS cells” value in [2] is on record as “did not affect the growth”. Further, in data set [3], the “growth of tumours derived from MCF-7AROM cells” value was “significant inhibition”. The “toxic effects (animal growth)” value in [4] is on record as “Neither STX213 nor letrozole appeared to have any toxic effects”. Moreover, the “growth of MCF-7STS+MCF-7AROM tumours” value in data set [5] is “some reduction of tumour growth”. In addition, the “growth of MCF-7WT tumours” value in the data set on MCF-7WT tumours is “some reduction of tumour growth”.

With oestrone-3-S-sulphamate, at E1-STS [6], the “mode of E1-STS inhibition (inactivation)” value is “weaker non-time-dependent inactivators”.

Take `NS(=O)(=O)Oc1ccc2c3c(c(=O)oc2c1)CCCCC3` [STX64]: the “tolerability, effects on animal weight” value in data set [1] (Study 2, FIG. 12) is given as “well tolerated with no effects on animal weight”. Further, in [7], the levels of androstenedione entry is on record as “reduced”, the levels of testosterone entry was “reduced” and the serum oestrogen concentrations result is on record as “reducing serum oestrogen concentrations”. Further, the “growth of tumours derived from MCF-7STS cells” value in [2] was “significant inhibition”. Moreover, the “growth of tumours derived from MCF-7AROM cells” value in [3] was “significant inhibition”. In [8], the “growth of tumours derived from MCF 7STS cells” value was “could be inhibited”. Also, the “STS activity in peripheral and tumour tissues” value on STS is reported as “effectively blocked STS activity”.

Turning to `CC12CCC3c4ccc(OS(N)(=O)=O)cc4CCC3C1CCC2=O` (stereo not shown) [EMATE, oestrone-3-sulphamate], the “inhibition of E1-STS activity” value on E1-STS [9] is listed as “more than 99%”. Further, on E1-STS [6], the “mode of E1-STS inhibition (inactivation)” value was “time- and concentration-dependent manner”. Also, the “inhibition of DHEA-STS” value in data set [10] was “also inhibits”. Moreover, the effect on memory result in data set [11] was “memory enhancing effect”.

As to `CCCN1C(=O)CC2C3CCc4cc(OS(N)(=O)=O)ccc4C3CC[C@]2(C)C1=O` (stereo partly shown) [STX213], the “toxic effects (animal growth)” value in data set [4] is reported as “Neither STX213 nor letrozole appeared to have any toxic effects”. Also, the “toxicity as shown by body weight” value in data set [4] (Study 1, at the dose tested, FIG. 7) is “devoid of any toxicity”. The “growth of tumours derived from MCF 7STS cells” value in data set [8] was “could be inhibited”. Moreover, the “growth of MCF-7STS+MCF-7AROM tumours” value in data set [5] is recorded as “significantly reduced the growth”. Moreover, the “growth of MCF-7WT tumours” value with MCF-7WT tumours is on record as “significantly reduced the growth”.

As to oestrone-3-N-sulphamate, the “mode of E1-STS inhibition (inactivation)” value on E1-STS [6] is “weaker non-time-dependent inactivators”.
